Test results published in US6525001B1, “Substituted pyrimidine and pyridine herbicides” (Mid-American Commercialization Corporation, priority 1997, dated 2003).

Legend:
Assay in all cases: Test E pre-/postemergence/post directed
Type in all cases: in vivo
[1] = test system: large crabgrass (Digitaria sanguinalis)
Source text: (§1) Seeds, tubers, or plant parts of alexandergrass (Brachiaria plantaginea), annual bluegrass (Poa annua), arrowleaf sida (Sida rhombifolia), barnyardgrass (Echinochloa crus-galli), bermudagrass (Cynodon dactylon), citrus (Citrus sinensis), common chickweed (Stellaria media), common purslane (Portulaca oleracea), common ragweed (Ambrosia elatior), common groundsel (Senecio vulgaris), dallisgrass (Paspalum dilatatum), goosegrass (Eleusine indica), green foxtail (Setaria viridis), guineagrass (Panicum maximum), itchgrass (Rottboellia exaltata), johnson grass (Sorghum halepense), kochia (Kochia scoparia), large crabgrass (Digitaria sanguinalis), leafy spurge (Euphorbia esula), pitted morningglory (Ipomoea lacunosa), purple nutsedge (Cyperus rotundus), quackgrass (Agropyron repens), Russian thistle (Salsola kali), sandbur (Cenchrus echinatus), sourgrass (Trichachne insularis), Spanishneedles (Bidens bipinnata), sugarcane (Saccharum officinarum), surinam grass (Brachiaria decumbens) and tall mallow (Malva sylvestris) were planted into greenhouse pots of flats containing greenhouse planting medium. Plant species were grown grown in separate pots or individual compartments. Preemergence applications were made within one day of planting the seed or plant part. Postemergence applications were applied when the plants were in the two to four leaf stage (three to twenty cm).
(§2) Test chemicals were formulated in a non-phytotoxic solvent mixture which included a surfactant and applied preemergence to the soil surface, postemergence to the plants or as a post directed spray to plants and soil at the base of the target species. Untreated control plants and treated plants were placed in the greenhouse and visually evaluated for injury 13 to 21 days after herbicide application. Plant response ratings, summarized in Table E, are based on a 0 to 100 scale where 0 is no injury and 100 is complete control. A dash (−) response means no test result.

[2] = test system: itchgrass (Rottboellia exaltata)
Source text: as §1, §2

[3] = test system: Spanishneedles (Bidens bipinnata)
Source text: as §1, §2

[4] = test system: common ragweed (Ambrosia elatior)
Source text: as §1, §2

[5] = test system: sandbur (Cenchrus echinatus); details: PREEMERGENCE
Source text: as §1, §2

[6] = test system: bermudagrass (Cynodon dactylon); details: PREEMERGENCE
Source text: as §1, §2

[7] = test system: common groundsel (Senecio vulgaris)
Source text: as §1, §2

[8] = test system: alexandergrass (Brachiaria plantaginea)
Source text: as §1, §2

[9] = test system: pitted morningglory (Ipomoea lacunosa)
Source text: as §1, §2

[10] = test system: johnson grass (Sorghum halepense)
Source text: as §1, §2

[11] = test system: purple nutsedge (Cyperus rotundus); parameters: key: 0 is no injury; 100 is complete control
Source text: as §1, §2

Cc1cnc(-n2cnc(C(F)(F)F)c2)nc1Cc1cccc(C(F)(F)F)c1 [Compound 44]
Plant response rating, Large crabgrass ([1]; POSTEMERGENCE, Rate 125 g/ha): 10 | Plant response rating, Large crabgrass ([1]; POSTEMERGENCE, Rate 250 g/ha): 10 | Plant response rating, Large crabgrass ([1]; PREEMERGENCE, Rate 64 g/ha): 60 | Plant response rating, Large crabgrass ([1]; PREEMERGENCE, Rate 125 g/ha): 70 | Plant response rating, Large crabgrass ([1]; PREEMERGENCE, Rate 250 g/ha): 60 | Plant response rating, Itchgrass ([2]; POSTEMERGENCE, Rate 125 g/ha): 5 | Plant response rating, Itchgrass ([2]; POSTEMERGENCE, Rate 250 g/ha): 10 | Plant response rating, Itchgrass ([2]; PREEMERGENCE, Rate 125 g/ha): 30 | Plant response rating, Itchgrass ([2]; PREEMERGENCE, Rate 250 g/ha): 40 | Plant response rating, Spanishneedles ([3]; POSTEMERGENCE, Rate 125 g/ha): 10 | Plant response rating, Spanishneedles ([3]; POSTEMERGENCE, Rate 250 g/ha): 10 | Plant response rating, Spanishneedles ([3]; PREEMERGENCE, Rate 32 g/ha): 20 | Plant response rating, Spanishneedles ([3]; PREEMERGENCE, Rate 64 g/ha): 60 | Plant response rating, Spanishneedles ([3]; PREEMERGENCE, Rate 125 g/ha): 70 | Plant response rating, Spanishneedles ([3]; PREEMERGENCE, Rate 250 g/ha): 98 | Plant response rating, Com. ragweed ([4]; POSTEMERGENCE, Rate 125 g/ha): 10 | Plant response rating, Com. ragweed ([4]; POSTEMERGENCE, Rate 250 g/ha): 20 | Plant response rating, Com. ragweed ([4]; PREEMERGENCE, Rate 32 g/ha): 40 | Plant response rating, Com. ragweed ([4]; PREEMERGENCE, Rate 64 g/ha): 85 | Plant response rating, Com. ragweed ([4]; PREEMERGENCE, Rate 125 g/ha): 98 | Plant response rating, Sandbur ([5]; Rate 64 g/ha): 60 | Plant response rating, Sandbur ([5]; Rate 125 g/ha): 70 | Plant response rating, Sandbur ([5]; Rate 250 g/ha): 80 | Plant response rating, Bermudagrass ([6]; Rate 32 g/ha): 30 | Plant response rating, Bermudagrass ([6]; Rate 64 g/ha): 80 | Plant response rating, Bermudagrass ([6]; Rate 125 g/ha): 98 | Plant response rating, Com. groundsel ([7]; POSTEMERGENCE, Rate 125 g/ha): 10 | Plant response rating, Com. groundsel ([7]; POSTEMERGENCE, Rate 250 g/ha): 10 | Plant response rating, Com. groundsel ([7]; PREEMERGENCE, Rate 32 g/ha): 98 | Plant response rating, Alexandergrass ([8]; POSTEMERGENCE, Rate 125 g/ha): 10 | Plant response rating, Alexandergrass ([8]; POSTEMERGENCE, Rate 250 g/ha): 10 | Plant response rating, Alexandergrass ([8]; PREEMERGENCE, Rate 64 g/ha): 40 | Plant response rating, Alexandergrass ([8]; PREEMERGENCE, Rate 125 g/ha): 40 | Plant response rating, Alexandergrass ([8]; PREEMERGENCE, Rate 250 g/ha): 50 | Plant response rating, P. morninglory ([9]; POSTEMERGENCE, Rate 125 g/ha): 30 | Plant response rating, P. morninglory ([9]; POSTEMERGENCE, Rate 250 g/ha): 40 | Plant response rating, P. morninglory ([9]; PREEMERGENCE, Rate 32 g/ha): 20 | Plant response rating, P. morninglory ([9]; PREEMERGENCE, Rate 64 g/ha): 30 | Plant response rating, P. morninglory ([9]; PREEMERGENCE, Rate 125 g/ha): 50 | Plant response rating, P. morninglory ([9]; PREEMERGENCE, Rate 250 g/ha): 50 | Plant response rating, Johnsongrass ([10]; POSTEMERGENCE, Rate 125 g/ha): 5 | Plant response rating, Johnsongrass ([10]; POSTEMERGENCE, Rate 250 g/ha): 10 | Plant response rating, Johnsongrass ([10]; PREEMERGENCE, Rate 32 g/ha): 30 | Plant response rating, Johnsongrass ([10]; PREEMERGENCE, Rate 125 g/ha): 60 | Plant response rating, Johnsongrass ([10]; PREEMERGENCE, Rate 250 g/ha): 75 | Plant response rating, Purple nutsedge ([11]; POSTEMERGENCE, Rate 125 g/ha): 0 | Plant response rating, Purple nutsedge ([11]; POSTEMERGENCE, Rate 250 g/ha): 0 | Plant response rating, Purple nutsedge ([11]; PREEMERGENCE, Rate 32 g/ha): 0 | Plant response rating, Purple nutsedge ([11]; PREEMERGENCE, Rate 64 g/ha): 0 | Plant response rating, Purple nutsedge ([11]; PREEMERGENCE, Rate 125 g/ha): 0 | Plant response rating, Purple nutsedge ([11]; PREEMERGENCE, Rate 250 g/ha): 0
